Results reported in paper PMC12621043, “Un-LOK-ing a New Approach for Conformational Selective Targeting of STK10 (LOK)” (ACS Medicinal Chemistry Letters, 2025).

Tests used:
AKT3A = molecular target: T1, AKT3A (Homo sapiens, UniProt Q9Y243); experiment: DSF Tm panel; assay type: binding; settings: 10 μM compound
T1 construct: purchased in-house DSF kinase panel (SGC-style construct names; the trailing letter is the construct ID)

FESA = molecular target: T2, FESA (Homo sapiens, UniProt P07332); experiment: DSF Tm panel; assay type: binding; settings: 10 μM compound
T2 construct: purchased in-house DSF kinase panel (SGC-style construct names; the trailing letter is the construct ID)
T2 sequence (P07332 whole entry): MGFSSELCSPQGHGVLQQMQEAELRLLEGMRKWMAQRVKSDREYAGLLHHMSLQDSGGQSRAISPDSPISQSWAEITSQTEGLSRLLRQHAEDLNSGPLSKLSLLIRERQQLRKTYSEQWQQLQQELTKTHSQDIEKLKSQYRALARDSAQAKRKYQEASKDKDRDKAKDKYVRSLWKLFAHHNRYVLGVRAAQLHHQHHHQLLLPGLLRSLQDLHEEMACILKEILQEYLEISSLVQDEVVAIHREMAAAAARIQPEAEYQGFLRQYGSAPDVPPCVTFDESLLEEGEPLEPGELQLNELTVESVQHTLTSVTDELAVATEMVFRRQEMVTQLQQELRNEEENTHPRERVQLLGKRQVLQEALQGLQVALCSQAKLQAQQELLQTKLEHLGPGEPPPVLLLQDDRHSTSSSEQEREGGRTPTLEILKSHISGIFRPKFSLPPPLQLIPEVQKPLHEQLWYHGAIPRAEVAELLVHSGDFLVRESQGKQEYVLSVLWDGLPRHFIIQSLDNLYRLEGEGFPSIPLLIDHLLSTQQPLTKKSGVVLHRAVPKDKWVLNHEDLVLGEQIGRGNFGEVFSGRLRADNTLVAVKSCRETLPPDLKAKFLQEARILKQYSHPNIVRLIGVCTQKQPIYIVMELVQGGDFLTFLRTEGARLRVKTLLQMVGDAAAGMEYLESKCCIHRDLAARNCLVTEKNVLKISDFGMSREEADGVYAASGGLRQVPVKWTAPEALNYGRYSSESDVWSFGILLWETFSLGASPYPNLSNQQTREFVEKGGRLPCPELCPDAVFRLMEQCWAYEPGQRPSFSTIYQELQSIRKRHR

PCTK1A = molecular target: T3, PCTK1A (Homo sapiens, UniProt Q00536); experiment: DSF Tm panel; assay type: binding; settings: 10 μM compound
T3 construct: purchased in-house DSF kinase panel (SGC-style construct names; the trailing letter is the construct ID)
T3 sequence (Q00536 163-478): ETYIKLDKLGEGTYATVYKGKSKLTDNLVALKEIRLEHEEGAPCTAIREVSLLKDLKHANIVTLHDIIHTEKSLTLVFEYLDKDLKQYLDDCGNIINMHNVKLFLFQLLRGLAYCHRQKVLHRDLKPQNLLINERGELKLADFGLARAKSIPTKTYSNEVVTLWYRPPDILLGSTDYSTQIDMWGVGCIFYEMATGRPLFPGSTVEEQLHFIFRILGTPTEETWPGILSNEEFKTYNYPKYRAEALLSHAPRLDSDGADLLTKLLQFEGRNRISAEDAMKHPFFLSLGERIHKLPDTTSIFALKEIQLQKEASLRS

STK10 = molecular target: T4, STK10 (Homo sapiens, UniProt O94804); experiment: PhosphoSens in vitro activity assay; assay type: biochemical; settings: ATP 160 μM
T4 construct: purchased in-house DSF kinase panel (SGC-style construct names; the trailing letter is the construct ID)
T4 sequence (O94804 18-317 limits assumed): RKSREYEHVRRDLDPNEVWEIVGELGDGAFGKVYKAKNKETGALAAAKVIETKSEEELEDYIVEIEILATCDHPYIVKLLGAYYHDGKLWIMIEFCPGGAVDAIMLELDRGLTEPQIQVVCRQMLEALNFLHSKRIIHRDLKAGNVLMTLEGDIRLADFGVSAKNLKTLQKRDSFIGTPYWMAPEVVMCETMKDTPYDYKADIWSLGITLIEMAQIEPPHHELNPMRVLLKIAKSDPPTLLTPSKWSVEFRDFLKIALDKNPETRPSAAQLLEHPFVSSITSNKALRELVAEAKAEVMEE

CLK1A = molecular target: T5, CLK1A (Homo sapiens, UniProt P49759); experiment: DSF Tm panel; assay type: binding; settings: 10 μM compound
T5 construct: purchased in-house DSF kinase panel (SGC-style construct names; the trailing letter is the construct ID)
T5 sequence (P49759 148-484): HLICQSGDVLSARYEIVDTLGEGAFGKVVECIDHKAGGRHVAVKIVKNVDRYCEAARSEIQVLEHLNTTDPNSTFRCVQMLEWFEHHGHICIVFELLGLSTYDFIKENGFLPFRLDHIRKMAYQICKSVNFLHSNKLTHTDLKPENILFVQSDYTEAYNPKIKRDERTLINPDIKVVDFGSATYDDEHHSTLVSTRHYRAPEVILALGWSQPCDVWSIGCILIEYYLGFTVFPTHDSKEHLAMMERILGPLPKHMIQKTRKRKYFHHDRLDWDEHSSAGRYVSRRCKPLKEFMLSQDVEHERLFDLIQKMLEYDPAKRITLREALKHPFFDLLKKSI

SRPK1A = molecular target: T6, SRPK1A (Homo sapiens, UniProt Q96SB4); experiment: DSF Tm panel; assay type: binding; settings: 10 μM compound
T6 construct: purchased in-house DSF kinase panel (SGC-style construct names; the trailing letter is the construct ID)
T6 sequence (Q96SB4 80-653): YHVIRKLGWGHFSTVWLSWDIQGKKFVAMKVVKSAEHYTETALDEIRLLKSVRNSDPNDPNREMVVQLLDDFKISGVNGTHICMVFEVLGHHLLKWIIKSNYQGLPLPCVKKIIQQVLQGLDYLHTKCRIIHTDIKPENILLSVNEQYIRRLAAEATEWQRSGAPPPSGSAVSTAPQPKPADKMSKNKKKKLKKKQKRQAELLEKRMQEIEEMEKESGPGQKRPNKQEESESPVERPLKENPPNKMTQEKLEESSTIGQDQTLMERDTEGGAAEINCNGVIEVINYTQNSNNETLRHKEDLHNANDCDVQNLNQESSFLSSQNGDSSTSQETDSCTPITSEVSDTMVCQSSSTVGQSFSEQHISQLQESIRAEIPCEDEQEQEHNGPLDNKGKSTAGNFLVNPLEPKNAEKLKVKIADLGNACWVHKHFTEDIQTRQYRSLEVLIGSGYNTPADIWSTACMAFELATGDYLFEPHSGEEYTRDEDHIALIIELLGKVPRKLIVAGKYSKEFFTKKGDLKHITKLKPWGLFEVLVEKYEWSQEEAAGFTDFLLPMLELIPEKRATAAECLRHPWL

ULK1A = molecular target: T7, ULK1A (Homo sapiens, UniProt O75385); experiment: DSF Tm panel; assay type: binding; settings: 10 μM compound
T7 construct: purchased in-house DSF kinase panel (SGC-style construct names; the trailing letter is the construct ID)
T7 sequence (O75385 1-283): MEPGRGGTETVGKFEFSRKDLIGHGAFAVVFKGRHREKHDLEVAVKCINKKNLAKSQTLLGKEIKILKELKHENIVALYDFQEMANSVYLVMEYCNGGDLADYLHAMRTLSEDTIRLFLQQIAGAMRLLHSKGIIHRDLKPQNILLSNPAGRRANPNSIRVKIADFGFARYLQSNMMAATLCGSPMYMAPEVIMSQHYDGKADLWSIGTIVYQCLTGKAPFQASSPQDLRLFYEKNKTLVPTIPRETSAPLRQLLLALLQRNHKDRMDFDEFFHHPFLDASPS

GAKA = molecular target: T8, GAKA (Homo sapiens, UniProt O14976); experiment: DSF Tm panel; assay type: binding; settings: 10 μM compound
T8 construct: purchased in-house DSF kinase panel (SGC-style construct names; the trailing letter is the construct ID)
T8 sequence (O14976 14-351): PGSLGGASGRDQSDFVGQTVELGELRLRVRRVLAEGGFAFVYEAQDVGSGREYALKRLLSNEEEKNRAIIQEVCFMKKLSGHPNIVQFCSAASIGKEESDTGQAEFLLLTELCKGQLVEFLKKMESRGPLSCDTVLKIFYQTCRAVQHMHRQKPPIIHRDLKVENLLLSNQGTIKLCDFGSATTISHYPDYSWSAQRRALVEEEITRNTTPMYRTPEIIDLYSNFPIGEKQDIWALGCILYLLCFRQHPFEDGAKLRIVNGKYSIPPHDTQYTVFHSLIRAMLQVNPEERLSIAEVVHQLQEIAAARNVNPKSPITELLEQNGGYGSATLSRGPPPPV

TAF1A = experiment: DSF Tm panel; assay type: binding; settings: 10 μM compound
BRD4 (BRD4A) = molecular target: T9, BRD4 (BRD4A) (Homo sapiens, UniProt O60885); experiment: DSF Tm panel; assay type: binding; settings: 10 μM compound
T9 construct: purchased in-house DSF kinase panel (SGC-style construct names; the trailing letter is the construct ID)

MAPK9A = molecular target: T10, MAPK9A (Homo sapiens, UniProt P45984); experiment: DSF Tm panel; assay type: binding; settings: 10 μM compound
T10 construct: purchased in-house DSF kinase panel (SGC-style construct names; the trailing letter is the construct ID)
T10 sequence (P45984 7-364): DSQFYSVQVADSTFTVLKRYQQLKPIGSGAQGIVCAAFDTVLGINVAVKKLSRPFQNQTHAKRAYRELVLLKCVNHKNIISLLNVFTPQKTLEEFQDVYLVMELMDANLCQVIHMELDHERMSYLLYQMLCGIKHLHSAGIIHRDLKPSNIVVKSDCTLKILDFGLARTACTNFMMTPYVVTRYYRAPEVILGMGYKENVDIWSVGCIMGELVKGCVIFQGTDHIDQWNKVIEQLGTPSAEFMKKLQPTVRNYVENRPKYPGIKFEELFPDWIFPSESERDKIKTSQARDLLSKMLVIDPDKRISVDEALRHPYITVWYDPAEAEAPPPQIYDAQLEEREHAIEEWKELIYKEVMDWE

AAK1 (AAK1A) = molecular target: T11, AAK1 (AAK1A) (Homo sapiens, UniProt Q2M2I8); experiment: DSF Tm panel; assay type: binding; settings: 10 μM compound
T11 construct: purchased in-house DSF kinase panel (SGC-style construct names; the trailing letter is the construct ID)
T11 sequence (Q2M2I8 27-365): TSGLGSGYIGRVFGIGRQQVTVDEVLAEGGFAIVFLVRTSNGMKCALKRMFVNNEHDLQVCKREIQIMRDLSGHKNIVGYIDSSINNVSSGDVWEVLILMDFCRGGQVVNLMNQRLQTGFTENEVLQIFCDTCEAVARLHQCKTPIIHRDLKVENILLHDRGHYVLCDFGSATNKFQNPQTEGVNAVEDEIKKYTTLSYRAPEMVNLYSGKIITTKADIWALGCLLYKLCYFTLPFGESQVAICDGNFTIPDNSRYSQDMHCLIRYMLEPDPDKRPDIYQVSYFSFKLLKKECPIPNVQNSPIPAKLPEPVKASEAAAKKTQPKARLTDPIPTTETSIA

SLK = SLK (Homo sapiens, UniProt Q9H2G2); experiment: PhosphoSens in vitro activity assay; assay type: biochemical; settings: ATP 150 μM
CASKA = molecular target: T12, CASKA (Homo sapiens, UniProt O14936); experiment: DSF Tm panel; assay type: binding; settings: 10 μM compound
T12 construct: purchased in-house DSF kinase panel (SGC-style construct names; the trailing letter is the construct ID)
T12 sequence (O14936 12-276): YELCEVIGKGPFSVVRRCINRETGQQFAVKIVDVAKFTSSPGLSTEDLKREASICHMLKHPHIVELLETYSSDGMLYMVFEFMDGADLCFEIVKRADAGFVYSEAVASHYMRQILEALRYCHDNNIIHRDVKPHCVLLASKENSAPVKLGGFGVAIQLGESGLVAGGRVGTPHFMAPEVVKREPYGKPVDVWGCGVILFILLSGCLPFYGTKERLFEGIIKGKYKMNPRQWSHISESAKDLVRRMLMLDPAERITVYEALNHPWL

MAPK14A = molecular target: T13, MAPK14A (Homo sapiens, UniProt Q16539); experiment: DSF Tm panel; assay type: binding; settings: 10 μM compound
T13 construct: purchased in-house DSF kinase panel (SGC-style construct names; the trailing letter is the construct ID)
T13 sequence (Q16539 whole entry): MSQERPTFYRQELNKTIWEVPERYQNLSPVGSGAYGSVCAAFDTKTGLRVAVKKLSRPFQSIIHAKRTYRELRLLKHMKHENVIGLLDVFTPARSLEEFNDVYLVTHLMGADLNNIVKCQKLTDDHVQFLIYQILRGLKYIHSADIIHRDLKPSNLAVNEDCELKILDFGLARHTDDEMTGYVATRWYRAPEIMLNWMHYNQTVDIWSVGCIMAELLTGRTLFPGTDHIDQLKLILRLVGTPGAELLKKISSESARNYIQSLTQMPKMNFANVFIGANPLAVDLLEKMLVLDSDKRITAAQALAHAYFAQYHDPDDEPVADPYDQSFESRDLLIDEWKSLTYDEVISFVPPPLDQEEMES

CSNK1DA = molecular target: T14, CSNK1DA (Homo sapiens, UniProt P48730); experiment: DSF Tm panel; assay type: binding; settings: 10 μM compound
T14 construct: purchased in-house DSF kinase panel (SGC-style construct names; the trailing letter is the construct ID)
T14 sequence (P48730 1-294): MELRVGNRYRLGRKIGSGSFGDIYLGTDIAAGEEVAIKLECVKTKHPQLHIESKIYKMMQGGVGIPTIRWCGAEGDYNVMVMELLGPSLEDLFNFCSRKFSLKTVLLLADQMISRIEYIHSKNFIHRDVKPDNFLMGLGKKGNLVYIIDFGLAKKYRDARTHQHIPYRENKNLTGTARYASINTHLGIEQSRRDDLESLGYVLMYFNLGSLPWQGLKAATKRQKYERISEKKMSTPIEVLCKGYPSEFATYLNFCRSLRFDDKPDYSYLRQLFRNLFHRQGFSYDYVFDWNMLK

T1 sequence (Q9Y243 148-479): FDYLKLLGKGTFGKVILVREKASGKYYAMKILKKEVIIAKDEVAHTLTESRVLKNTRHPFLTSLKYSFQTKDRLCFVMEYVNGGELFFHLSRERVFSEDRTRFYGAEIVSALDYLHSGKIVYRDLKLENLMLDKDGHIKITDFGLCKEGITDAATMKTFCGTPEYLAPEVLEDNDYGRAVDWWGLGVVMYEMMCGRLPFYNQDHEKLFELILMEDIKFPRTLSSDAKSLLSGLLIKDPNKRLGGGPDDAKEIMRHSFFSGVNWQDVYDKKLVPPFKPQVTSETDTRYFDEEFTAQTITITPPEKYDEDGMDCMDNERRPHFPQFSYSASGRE

Structure (SMILES) | ΔTm at 10 µM (AKT3A) [°C] | ΔTm at 10 µM (FESA) [°C] | ΔTm at 10 µM (PCTK1A) [°C] | IC50 (STK10) [µM] | ΔTm at 10 µM (CLK1A) [°C] | ΔTm at 10 µM (SRPK1A) [°C] | ΔTm at 10 µM (ULK1A) [°C] | ΔTm at 10 µM (GAKA) [°C] | ΔTm at 10 µM (BRD4 (BRD4A)) [°C] | ΔTm at 10 µM (MAPK9A) [°C] | ΔTm at 10 µM (AAK1 (AAK1A)) [°C] | IC50 (SLK) [µM] | ΔTm at 10 µM (CASKA) [°C] | ΔTm at 10 µM (MAPK14A) [°C] | ΔTm at 10 µM (CSNK1DA) [°C] | ΔTm TAF1A (TAF1A)
COc1ccccc1CNC(=O)Nc1ccc2cc1OCCOCCNc1ccn3ncc-2c3n1 [compound 29] | 0.3 | 2 | 1 | 5.2 ± 0.81 | 2.8 | 0.2 | 0.4 | 4.5 | 0.3 | -2.1 | 5.5 | 17.1 ± 2.86 | 1.1 | 0.9 | 0.2 | 0,0 °C
O=C(NCc1ccc(Cl)cc1F)Nc1ccc2cc1OCCOCCNc1ccn3ncc-2c3n1 [compound 21] | -0.3 | 0.6 | 1.1 | 2.62 ± 0.61 | 2.8 | 0.4 | 0.2 | 3.9 | 2 | 0.3 | 7.1 | 8.88 ± 1.41 | 2.7 | 0.5 | 0 | 0,4 °C
Cc1ccc(F)cc1CNC(=O)Nc1ccc2cc1OCCOCCNc1ccn3ncc-2c3n1 [compound 26] | 1.8 | 0.3 | 1 | 3.53 ± 0.57 | 2.1 | 0 | 0.1 | 6 | 0.5 | -1.6 | 5 | 9.8 ± 2.41 | 1.2 | 2.7 | -0.1 | 0,1 °C
COc1ccc(CNC(=O)Nc2ccc3cc2OCCOCCNc2ccn4ncc-3c4n2)cc1F [compound 32] | 0.8 | 0.8 | 2 | 3.33 ± 0.66 | 2.7 | 0 | 0.5 | 6 | 1.2 | -0.6 | 6.3 | 11 ± 2.68 | 1.7 | 2.4 | -0.2 | 0,2 °C
C[C@H](NC(=O)Nc1ccc2cc1OCCOCCNc1ccn3ncc-2c3n1)c1ccccc1 [compound 34] | 0.4 | 1.3 | 0.5 | 10.2 | 3.1 | -0.1 | -0.1 | 5.7 | -0.1 | -2 | 5.9 | > 20 | 1 | 1.3 | -0.1 | -0,3 °C
COc1ccc(CNC(=O)Nc2ccc3cc2OCCOCCNc2ccn4ncc-3c4n2)cc1 [compound 31] | 1.6 | 0.8 | 1.9 | 2.74 ± 0.47 | 2.8 | 0.1 | 0.6 | 6.2 | 0.6 | -1.3 | 6.7 |  | 1.8 | 1.5 | 0.1 | 0,0 °C
CN1CCN(C(=O)Nc2ccc3cc2OCCOCCNc2ccn4ncc-3c4n2)CC1 [compound 35] | 0 | -0.2 | 1 |  | 2.9 | 0.2 | 0.2 | 3.8 | -0.4 | 0.4 | 7.7 |  | 0 | -0.3 | 0.5 | 0,1 °C
O=C(NCc1ccc(C(F)(F)F)cc1)Nc1ccc2cc1OCCOCCNc1ccn3ncc-2c3n1 [compound 28] | 0.4 | 1 | 1 | 5 ± 0.61 | 2.3 | 0 | 0.6 | 5.1 | 2.1 | -0.2 | 4.7 |  | 0.5 | 3.1 | -0.5 | 0,3 °C

Further compounds by falling IC50 (STK10), results first:

ΔTm at 10 µM (AKT3A) [°C] | ΔTm at 10 µM (FESA) [°C] | ΔTm at 10 µM (PCTK1A) [°C] | IC50 (STK10) [µM] | ΔTm at 10 µM (CLK1A) [°C] | ΔTm at 10 µM (SRPK1A) [°C] | ΔTm at 10 µM (ULK1A) [°C] | ΔTm at 10 µM (GAKA) [°C] | ΔTm at 10 µM (BRD4 (BRD4A)) [°C] | ΔTm at 10 µM (MAPK9A) [°C] | ΔTm at 10 µM (AAK1 (AAK1A)) [°C] | IC50 (SLK) [µM] | ΔTm at 10 µM (CASKA) [°C] | ΔTm at 10 µM (MAPK14A) [°C] | ΔTm at 10 µM (CSNK1DA) [°C] | Structure (SMILES) | ΔTm TAF1A (TAF1A)
-0.1 | 0.7 | 1.1 | 2.36 ± 0.6 | 2.3 | -0.1 | 0.4 | 5.4 | 1.8 | -0.1 | 3.9 | 2.74 ± 0.89 | 1.6 | 2.6 | -0.5 | O=C(NCc1ccccc1C(F)(F)F)Nc1ccc2cc1OCCOCCNc1ccn3ncc-2c3n1 [compound 27] | 0,1 °C
0.9 | 0.5 | 1.7 | 2.34 ± 0.79 | 4.7 | 0 | 0.2 | 6.2 | 0.7 | -1.2 | 6.4 | > 20 | 0.9 | 1.4 | 0.1 | COc1cc(CNC(=O)Nc2ccc3cc2OCCOCCNc2ccn4ncc-3c4n2)ccc1F [compound 33] | 0,1 °C
-0.3 | 0.2 | 2.5 | 1.53 ± 0.26 | 4.5 | 0 | 0.3 | 4.8 | 1.3 | 0.4 | 7 | 6.83 ± 1.58 | 2.8 | 0 | 0.6 | O=C(NCc1ccccc1Cl)Nc1ccc2cc1OCCOCCNc1ccn3ncc-2c3n1 [compound 17] | 0,5 °C
-0.4 | 0.4 | 1.3 | 0.95 ± 0.12 | 2.1 | 0.2 | 0.4 | 4.4 | 1 | 0.3 | 7.1 | 7.16 ± 1.12 | 2.2 | 0.1 | 0.4 | O=C(NCc1ccc(Cl)cc1)Nc1ccc2cc1OCCOCCNc1ccn3ncc-2c3n1 [compound 19] | -0,4 °C
0 | 3 | 1.8 | 0.88 ± 0.11 | 3.4 | 0 | 0.6 | 6.1 | 0.7 | 1.7 | 8.3 | 9.36 ± 1.77 | 2.2 | -0.6 | 0.7 | O=C(NCc1ccccc1)Nc1ccc2cc1OCCOCCNc1ccn3ncc-2c3n1 [compound 16] | 0,4 °C
